According to PubChem BioAssay (NCI):
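Interpolation was linear, between the two tested concentrations surrounding the appropriate level; five concentrations were tested over 48 hours in 96-well plates. GI50 = concentration required for 50% inhibition of growth. At the TGI there is no net growth.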

Tests used:
Test in all cases: NCI anticancer screen, dose series, 48 h
SF-539 CNS = tested on: SF-539 CNS
COLO 205 colon = tested on: COLO 205 colon
SF-295 CNS = tested on: SF-295 CNS
HOP-92 NSCLC = tested on: HOP-92 NSCLC
MDA-MB-231 breast = tested on: MDA-MB-231 breast
MCF7 breast = tested on: MCF7 breast
OVCAR-8 ovarian = tested on: OVCAR-8 ovarian
SNB-75 CNS = tested on: SNB-75 CNS
HCT-15 colon = tested on: HCT-15 colon
SN12C renal = tested on: SN12C renal
UACC-257 melanoma = tested on: UACC-257 melanoma
SK-MEL-28 melanoma = tested on: SK-MEL-28 melanoma
786-0 renal = tested on: 786-0 renal
SR leukemia = tested on: SR leukemia
DU-145 prostate = tested on: DU-145 prostate
HOP-62 NSCLC = tested on: HOP-62 NSCLC
OVCAR-3 ovarian = tested on: OVCAR-3 ovarian
KM12 colon = tested on: KM12 colon
CCRF-CEM leukemia = tested on: CCRF-CEM leukemia
SK-OV-3 ovarian = tested on: SK-OV-3 ovarian
SK-MEL-5 melanoma = tested on: SK-MEL-5 melanoma
A549 NSCLC = tested on: A549 NSCLC
SW-620 colon = tested on: SW-620 colon
M14 melanoma = tested on: M14 melanoma
UACC-62 melanoma = tested on: UACC-62 melanoma
MDA-MB-435 = tested on: MDA-MB-435
NCI-H522 lung = tested on: NCI-H522 lung
T-47D breast = tested on: T-47D breast
ACHN renal = tested on: ACHN renal
CAKI-1 renal = tested on: CAKI-1 renal
HCC-2998 colon = tested on: HCC-2998 colon
NCI-H23 lung = tested on: NCI-H23 lung
SNB-19 CNS = tested on: SNB-19 CNS
K-562 leukemia = tested on: K-562 leukemia
RPMI-8226 leukemia = tested on: RPMI-8226 leukemia
NCI/ADR-RES ovarian = tested on: NCI/ADR-RES ovarian
IGROV1 ovarian = tested on: IGROV1 ovarian
MALME-3M melanoma = tested on: MALME-3M melanoma
RXF 393 renal = tested on: RXF 393 renal
U251 CNS = tested on: U251 CNS
BT-549 breast = tested on: BT-549 breast
TK-10 renal = tested on: TK-10 renal
SK-MEL-2 melanoma = tested on: SK-MEL-2 melanoma
HT29 colon = tested on: HT29 colon
OVCAR-4 ovarian = tested on: OVCAR-4 ovarian
EKVX NSCLC = tested on: EKVX NSCLC
A498 renal = tested on: A498 renal
NCI-H460 lung = tested on: NCI-H460 lung
SF-268 CNS = tested on: SF-268 CNS
MOLT-4 leukemia = tested on: MOLT-4 leukemia
HCT-116 colon = tested on: HCT-116 colon
HS 578T breast = tested on: HS 578T breast
HL-60(TB) leukemia = tested on: HL-60(TB) leukemia
OVCAR-5 ovarian = tested on: OVCAR-5 ovarian
LOX IMVI melanoma = tested on: LOX IMVI melanoma
UO-31 renal = tested on: UO-31 renal
PC-3 prostate = tested on: PC-3 prostate
NCI-H226 lung = tested on: NCI-H226 lung

## c1ccc(Oc2ccc(Nc3ncc(-c4ccccc4)o3)cc2)cc1
SF-539 CNS
  GI50: > 25 µM
  TGI: > 25 µM
COLO 205 colon
  GI50: > 25 µM
  TGI: > 25 µM
SF-295 CNS
  GI50: > 25 µM
  TGI: > 25 µM
HOP-92 NSCLC
  GI50: 23.9 µM
  TGI: > 25 µM
MDA-MB-231 breast
  GI50: > 25 µM
  TGI: > 25 µM
MCF7 breast
  GI50: > 25 µM
  TGI: > 25 µM
OVCAR-8 ovarian
  GI50: > 25 µM
  TGI: > 25 µM
SNB-75 CNS
  GI50: > 25 µM
  TGI: > 25 µM
HCT-15 colon
  GI50: > 25 µM
  TGI: > 25 µM
SN12C renal
  GI50: > 25 µM
  TGI: > 25 µM
UACC-257 melanoma
  GI50: > 25 µM
  TGI: > 25 µM
SK-MEL-28 melanoma
  GI50: > 25 µM
  TGI: > 25 µM
786-0 renal
  GI50: > 25 µM
  TGI: > 25 µM
SR leukemia
  GI50: > 25 µM
  TGI: > 25 µM
DU-145 prostate
  GI50: > 25 µM
  TGI: > 25 µM
HOP-62 NSCLC
  GI50: > 25 µM
  TGI: > 25 µM
OVCAR-3 ovarian
  GI50: > 25 µM
  TGI: > 25 µM
KM12 colon
  GI50: > 25 µM
  TGI: > 25 µM
CCRF-CEM leukemia
  GI50: > 25 µM
  TGI: > 25 µM
SK-OV-3 ovarian
  GI50: > 25 µM
  TGI: > 25 µM
SK-MEL-5 melanoma
  GI50: > 25 µM
  TGI: > 25 µM
A549 NSCLC
  GI50: > 25 µM
  TGI: > 25 µM
SW-620 colon
  GI50: > 25 µM
  TGI: > 25 µM
M14 melanoma
  GI50: > 25 µM
  TGI: > 25 µM
UACC-62 melanoma
  GI50: > 25 µM
  TGI: > 25 µM
MDA-MB-435
  GI50: > 25 µM
  TGI: > 25 µM
NCI-H522 lung
  GI50: > 25 µM
  TGI: > 25 µM
T-47D breast
  GI50: > 25 µM
  TGI: > 25 µM
ACHN renal
  GI50: > 25 µM
  TGI: > 25 µM
CAKI-1 renal
  GI50: > 25 µM
  TGI: > 25 µM
HCC-2998 colon
  GI50: > 25 µM
  TGI: > 25 µM
NCI-H23 lung
  GI50: > 25 µM
  TGI: > 25 µM
SNB-19 CNS
  GI50: > 25 µM
  TGI: > 25 µM
K-562 leukemia
  GI50: > 25 µM
  TGI: > 25 µM
RPMI-8226 leukemia
  GI50: > 25 µM
  TGI: > 25 µM
NCI/ADR-RES ovarian
  GI50: > 25 µM
  TGI: > 25 µM
IGROV1 ovarian
  GI50: > 25 µM
  TGI: > 25 µM
MALME-3M melanoma
  GI50: > 25 µM
  TGI: > 25 µM
RXF 393 renal
  GI50: > 25 µM
  TGI: > 25 µM
U251 CNS
  GI50: > 25 µM
  TGI: > 25 µM
BT-549 breast
  GI50: > 25 µM
  TGI: > 25 µM
TK-10 renal
  GI50: > 25 µM
  TGI: > 25 µM
SK-MEL-2 melanoma
  GI50: > 25 µM
  TGI: > 25 µM
HT29 colon
  GI50: > 25 µM
  TGI: > 25 µM
OVCAR-4 ovarian
  GI50: > 25 µM
  TGI: > 25 µM
EKVX NSCLC
  GI50: > 25 µM
  TGI: > 25 µM
A498 renal
  GI50: > 25 µM
  TGI: > 25 µM
NCI-H460 lung
  GI50: > 25 µM
  TGI: > 25 µM
SF-268 CNS
  GI50: > 25 µM
  TGI: > 25 µM
MOLT-4 leukemia
  GI50: > 25 µM
  TGI: > 25 µM
HCT-116 colon
  GI50: > 25 µM
  TGI: > 25 µM
HS 578T breast
  GI50: > 25 µM
  TGI: > 25 µM
HL-60(TB) leukemia
  GI50: > 25 µM
  TGI: > 25 µM
OVCAR-5 ovarian
  GI50: > 25 µM
  TGI: > 25 µM
LOX IMVI melanoma
  GI50: > 25 µM
  TGI: > 25 µM
UO-31 renal
  GI50: > 25 µM
  TGI: > 25 µM
PC-3 prostate
  GI50: > 25 µM
  TGI: > 25 µM
NCI-H226 lung
  GI50: > 25 µM
  TGI: > 25 µM

## Clc1ccc2c(c1)N(C1CCCN(Cc3ccccc3)C1)c1ccccc1S2 (stereo not drawn)
SF-539 CNS
  GI50: 4.61 µM
  TGI: 56.2 µM
COLO 205 colon
  GI50: 2.9 µM
  TGI: 10.1 µM
SF-295 CNS
  GI50: 2.44 µM
  TGI: 6.82 µM
HOP-92 NSCLC
  GI50: 4.68 µM
  TGI: 74.2 µM
MDA-MB-231 breast
  GI50: 3.35 µM
  TGI: 13.1 µM
MCF7 breast
  GI50: 3.25 µM
  TGI: > 100 µM
OVCAR-8 ovarian
  GI50: 6.36 µM
  TGI: > 100 µM
SNB-75 CNS
  GI50: 4.11 µM
  TGI: > 100 µM
HCT-15 colon
  GI50: 4.12 µM
  TGI: > 100 µM
SN12C renal
  GI50: 5.79 µM
  TGI: > 100 µM
UACC-257 melanoma
  GI50: 18.3 µM
  TGI: > 100 µM
SK-MEL-28 melanoma
  GI50: 7.69 µM
  TGI: > 100 µM
786-0 renal
  GI50: 4.44 µM
  TGI: > 100 µM
SR leukemia
  GI50: 3.01 µM
  TGI: 32.7 µM
DU-145 prostate
  GI50: 4.03 µM
  TGI: 19.7 µM
HOP-62 NSCLC
  GI50: 22.3 µM
  TGI: > 100 µM
OVCAR-3 ovarian
  GI50: 3.27 µM
  TGI: 24.4 µM
KM12 colon
  GI50: 4.73 µM
  TGI: > 100 µM
CCRF-CEM leukemia
  GI50: 4.89 µM
  TGI: > 100 µM
SK-OV-3 ovarian
  GI50: 3.36 µM
  TGI: > 100 µM
SK-MEL-5 melanoma
  GI50: 5.71 µM
  TGI: 25.3 µM
A549 NSCLC
  GI50: 4.94 µM
  TGI: > 100 µM
SW-620 colon
  GI50: 2.98 µM
  TGI: 32.5 µM
M14 melanoma
  GI50: 2 µM
  TGI: 4.41 µM
UACC-62 melanoma
  GI50: 6.94 µM
  TGI: > 100 µM
MDA-MB-435
  GI50: 1.79 µM
  TGI: 3.72 µM
NCI-H522 lung
  GI50: 2.13 µM
  TGI: 6.3 µM
T-47D breast
  GI50: 7.4 µM
  TGI: > 100 µM
ACHN renal
  GI50: 7.22 µM
  TGI: > 100 µM
CAKI-1 renal
  GI50: 4.38 µM
  TGI: 24 µM
HCC-2998 colon
  GI50: 5.59 µM
  TGI: 32.3 µM
NCI-H23 lung
  GI50: 9.33 µM
  TGI: > 100 µM
SNB-19 CNS
  GI50: 6.02 µM
  TGI: > 100 µM
K-562 leukemia
  GI50: 3.19 µM
  TGI: > 100 µM
RPMI-8226 leukemia
  GI50: 3.91 µM
  TGI: > 100 µM
NCI/ADR-RES ovarian
  GI50: 3.24 µM
  TGI: 13.7 µM
MALME-3M melanoma
  GI50: 3.88 µM
  TGI: 39.9 µM
RXF 393 renal
  GI50: 3.69 µM
  TGI: 25.3 µM
U251 CNS
  GI50: 4.31 µM
  TGI: > 100 µM
BT-549 breast
  GI50: 7.39 µM
  TGI: 77 µM
TK-10 renal
  GI50: 71.8 µM
  TGI: > 100 µM
HT29 colon
  GI50: 11.5 µM
  TGI: > 100 µM
OVCAR-4 ovarian
  GI50: 18 µM
  TGI: > 100 µM
EKVX NSCLC
  GI50: 4.22 µM
  TGI: 79.9 µM
A498 renal
  GI50: 14.7 µM
  TGI: > 100 µM
NCI-H460 lung
  GI50: 3.17 µM
  TGI: 10.4 µM
SF-268 CNS
  GI50: 3.8 µM
  TGI: > 100 µM
MOLT-4 leukemia
  GI50: 16.6 µM
  TGI: > 100 µM
HCT-116 colon
  GI50: 2.92 µM
  TGI: 11.5 µM
HS 578T breast
  GI50: 2.12 µM
  TGI: 6.07 µM
HL-60(TB) leukemia
  GI50: 4.52 µM
  TGI: 72.5 µM
OVCAR-5 ovarian
  GI50: 14.6 µM
  TGI: > 100 µM
LOX IMVI melanoma
  GI50: 6 µM
  TGI: 35.8 µM
UO-31 renal
  GI50: 3.12 µM
  TGI: > 100 µM
PC-3 prostate
  GI50: 4.4 µM
  TGI: > 100 µM
NCI-H226 lung
  GI50: 22.6 µM
  TGI: > 100 µM
